# In ChEMBL document CHEMBL3397016, “SAR-studies of γ-secretase modulators with PPARγ-agonistic and 5-lipoxygenase-inhibitory activity for Alzheimer's disease” (Bioorg Med Chem Lett, 2015):
# What was measured:
# Presenilin-1 [1] = molecular target: T1, Presenilin-1 (Homo sapiens, UniProt P49768); assay: Inhibition of wild-type human presenilin-1 stably overexpressed in CHO cells co-expressing wild-type human amyloid precursor protein assessed as inhibition of amyloid beta 42 formation after 24 hrs by ELISA; assay type: cell-based
# Presenilin-1 [2] = molecular target: T1, Presenilin-1; assay: Activation of wild-type human presenilin-1 stably overexpressed in CHO cells co-expressing wild-type human amyloid precursor protein assessed as amyloid beta 38 formation after 24 hrs by ELISA; assay type: cell-based
# [3] = molecular target: T2, Peroxisome proliferator-activated receptor gamma (Homo sapiens) (UniProt P37231); assay: Activation of human PPARgamma ligand binding domain expressed in COS7 cells by dual luciferase reporter gene assay relative to 1 uM pioglitazone; assay type: cell-based; conditions: COS-7
# T2 sequence (whole entry): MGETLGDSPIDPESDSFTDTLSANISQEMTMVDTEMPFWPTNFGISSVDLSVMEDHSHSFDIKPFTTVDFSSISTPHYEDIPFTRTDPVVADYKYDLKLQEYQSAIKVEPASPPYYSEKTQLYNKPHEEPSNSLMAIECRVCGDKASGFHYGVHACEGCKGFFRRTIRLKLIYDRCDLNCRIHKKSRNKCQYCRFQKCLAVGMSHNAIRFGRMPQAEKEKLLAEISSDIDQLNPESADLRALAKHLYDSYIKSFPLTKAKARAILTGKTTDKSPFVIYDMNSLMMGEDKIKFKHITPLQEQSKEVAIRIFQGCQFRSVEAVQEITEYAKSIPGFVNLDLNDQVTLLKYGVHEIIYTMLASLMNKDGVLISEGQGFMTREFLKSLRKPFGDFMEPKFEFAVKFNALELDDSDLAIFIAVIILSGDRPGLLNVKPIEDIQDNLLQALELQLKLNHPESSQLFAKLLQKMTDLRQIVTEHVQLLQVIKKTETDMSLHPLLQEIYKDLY
# [4] = molecular target: T3, Peroxisome proliferator-activated receptor gamma (Homo sapiens, UniProt P37231); assay: Activation of human PPARgamma ligand binding domain expressed in COS7 cells by dual luciferase reporter gene assay; assay type: cell-based, COS-7
# T3 sequence (P37231 whole entry): T2 sequence (whole entry)
# [5] = molecular target: T4, Polyunsaturated fatty acid 5-lipoxygenase (Homo sapiens, UniProt P09917); assay: Inhibition of 5-LO in human PMNL assessed as reduction in 5-LO product formation pre-incubated for 15 mins before addition of arachidonic acid substrate by HPLC analysis
# T4 sequence (P09917 whole entry): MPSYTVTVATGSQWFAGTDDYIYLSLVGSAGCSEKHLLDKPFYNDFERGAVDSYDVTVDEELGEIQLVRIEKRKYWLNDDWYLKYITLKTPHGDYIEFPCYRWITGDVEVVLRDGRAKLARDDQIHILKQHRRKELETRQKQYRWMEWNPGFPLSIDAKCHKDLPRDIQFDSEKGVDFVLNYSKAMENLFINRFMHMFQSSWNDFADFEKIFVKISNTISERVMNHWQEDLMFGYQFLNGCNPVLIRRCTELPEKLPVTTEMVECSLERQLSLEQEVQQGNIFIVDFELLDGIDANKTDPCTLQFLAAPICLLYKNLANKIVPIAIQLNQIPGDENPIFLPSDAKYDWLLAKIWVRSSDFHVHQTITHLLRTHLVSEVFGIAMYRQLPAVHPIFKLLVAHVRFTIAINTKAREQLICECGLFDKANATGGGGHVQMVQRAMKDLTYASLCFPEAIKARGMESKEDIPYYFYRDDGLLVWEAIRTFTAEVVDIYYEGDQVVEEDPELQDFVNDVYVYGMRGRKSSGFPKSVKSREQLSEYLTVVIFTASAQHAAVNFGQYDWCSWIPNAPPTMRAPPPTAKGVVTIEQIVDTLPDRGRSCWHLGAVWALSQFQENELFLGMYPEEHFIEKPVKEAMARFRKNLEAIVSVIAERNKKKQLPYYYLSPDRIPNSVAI
Compound,IC50 (Presenilin-1 [1]) [µM],EC50 (Presenilin-1 [2]) [µM],max activation [3] [%],EC50 ([4]; cos-7),IC50 [5],EC50 ([4]; read-out: EC50) [µM],IC50 ([5]; read-out: IC50) [µM]
CCCCC(Sc1nc(OCCc2ccccc2)cc(OCCc2ccccc2)n1)C(=O)O (configuration not stated),22.8,11.3,61,–,–,–,–
CCCC/C(=C\c1cc(Oc2ccccc2)ccc1OCc1ccc(C(F)(F)F)cc1)C(=O)O,14.9,15.6,76,–,–,0.72,2.1
CCCCC(Sc1nc(OCCC2CCCCC2)cc(OCCC2CCCCC2)n1)C(=O)O (configuration not stated),5.1,4.6,71,–,–,–,–

# Results, then the molecule that gave them:
IC50 (Presenilin-1 [1]) [µM],EC50 (Presenilin-1 [2]) [µM],max activation [3] [%],EC50 ([4]; cos-7),IC50 [5],EC50 ([4]; read-out: EC50) [µM],IC50 ([5]; read-out: IC50) [µM],Compound
11.9,3.2,–,Not Active,Not Active,–,–,CCCC/C(=C\c1cc(OCc2ccc(-c3ccccc3)cc2)ccc1OCc1ccc(C(F)(F)F)cc1)C(=O)O
8.5,1.8,–,Not Active,Not Active,–,–,CCCC/C(=C\c1cc(OCc2ccc(OCc3ccccc3)cc2)ccc1OCc1ccc(C(F)(F)F)cc1)C(=O)O
4.4,4.4,–,Not Active,Not Active,–,–,CCCC/C(=C\c1cc(OCc2ccc(CCCC)cc2)ccc1OCc1ccc(C(F)(F)F)cc1)C(=O)O
32.1,23.2,120,–,–,2.56,2.3,CCCC/C(=C\c1cc(OCc2cccnc2)ccc1OCc1ccc(C(F)(F)F)cc1)C(=O)O
20.2,2.2,–,Not Active,–,–,6.7,CCCC/C(=C\c1cc(OCc2ccc(-c3csc(C)n3)cc2)ccc1OCc1ccc(C(F)(F)F)cc1)C(=O)O
